Where “and” joins values, the source holds several entries; their conditions need not be identical. Equal entries are not always repeated. Where two headings read alike, the source gives them in different places.
Experiments:
[1] = Drug concentration in monkey brain and plasma after daily oral administration for 91 days; assay type: in vivo, cynomolgus monkeys; conditions: 10 mg/kg oral once a day for 91 days; for Kp at 24 h / concentration at 24 h: female, cynomolgus monkey, 10 mg/kg; for Kp at 24 h: brain (left forebrain) / plasma, po; for concentration at 24 h: oral
Procedure: Compound of formula (I) was orally given to 3 female cynomolgus monkeys by gavage once a day for 91 days. The volume of administration was 5 mL/kg, and the vehicle was an aqueous solution of 0.5% (w/v) methylcellulose (cps 400) and 1% (w/v) Tween 80. The Compound of formula (I) dose was 10 mg/kg; this dose level was assessed in this study to be the […] no adverse effect level (NOAEL) based on general toxicology evaluation. The animals were necropsied 24 hours after the last dose after an overnight period without food. A sample from brain tissue (left forebrain) was collected from each animal, snap frozen in liquid nitrogen. and stored frozen at <−50° C. Blood samples were taken from the femoral vein into tubes containing K2EDTA, fully inverted approximately 10 times, and placed on crushed wet ice until centrifugation at 2300 g for 10 minutes at approximately 4° C. The resultant plasma was separated, transferred into polypropylene tubes, and frozen at <−50° C. Tissue and plasma samples were transported frozen on dry ice to the respective sites of analysis.
The monkey plasma samples were analyzed for their contents in Compound of formula (I) and N^32-desmethyl-Compound of formula (I) as follows. The plasma samples were fortified in human K2-EDTA plasma (1:9 monkey:human volume ratio) prior to extraction. All solution preparations and dilutions were conducted under sodium vapor light and in “low-binding” quality polypropylene tubes and deep-well plates. The analytes and internal standards (^13CD6-Compound of formula (I) and D7-N^32-desmethyl-Compound of formula (I)) were extracted by protein precipitation with 5M aqueous urea (40 μL for 50 μL plasma), and then analyzed by LC-MS/MS. Chromatographic separation was achieved on an Synergi Polar-RP, 80A, 4 μm 75×2.00 mm column (Phenomenex) with gradient elution using a mixture of 0.1% formic acid in water as eluent A and 0.1% formic acid in acetonitrile as eluent B (5% B from 0 to 0.50 min, 42% B at 4.5 min, 95% B from 4.60 min to 5.50 min, 5% B at 5.60 min, 100% B at 5.70 min, 5% B at 6.40 min, 100% B at 6.50 min, 5% B at 7.00 min; 800 μl/min, 70° C.). Detection was accomplished with a AB Sciex 6500+ mass spectrometer utilizing electrospray MS/MS in positive ion multiple reaction monitoring mode (MRM). The lower limits of quantification for Compound of formula (I) and N^32-desmethyl-Compound of formula (I) were 5.00 ng/mL and 2.50 ng/mL, respectively.
The monkey brain tissue samples were analyzed for their contents in Compound of formula (I) and N^32-desmethyl-Compound of formula (I) as follows. Tissue samples were homogenized in human plasma (1 mg tissue for 10 μL plasma) at +4° C. using a Precelly Evolution system. The analytes (Compound of formula (I) and N^32-desmethyl-Compound of formula (I)) were extracted by protein precipitation with methanol/acetonitrile (9:1, v:v) containing the internal standards (^13CD6-Compound of formula (I) and D7-N^32-desmethyl-Compound of formula (I)) and then analyzed by UHPLC-MS/MS. Chromatographic separation was achieved on a HSS T3 1.8 μm, 2.1×100 mme column (Waters) with gradient elution using a mixture of 0.1% formic acid in water as eluent A, and 0.1% formic acid in acetonitrile as eluent B (20% B from 0 to 0.50 min, 90% B from 1.80 min to 2.30 min, 20% B at 2.60 min; 0.6 mL/min, room temperature). Detection was accomplished with Xevo TQ-S mass spectrometer (Waters) utilizing electrospray MS/MS in positive ion multiple reaction monitoring mode (MRM). The lower limits of quantification for Compound of formula (I) and N^32-desmethyl-Compound of formula (I) were 55.00 ng/g tissue and 22.00 ng/g tissue, respectively.

[2] = system: U87-MG-luc GBM cell line; test: U87-MG-luc tumors implanted intracranially in mice, combination with temozolomide; assay type: in vivo; conditions: 28 day cycle
Procedure: Male athymic nude mice were injected into the cerebellum with 1×10^5 U87-MG-luc cells in Matrigel. Animals were imaged to monitor tumor establishment and growth throughout the study using an In Vivo Imaging System (IVIS) once weekly, detecting tumor bioluminescence (BLI) in photons. Once tumor establishment was confirmed, animals were randomly allocated into 8 treatment groups: vehicle (0.5% methycellulose, 1% Tween 80 P.O. and saline IV.), Compound of formula (I) [CoF (I)](formulated as a suspension in 0.5% methycellulose and 1% Tween 80) administered orally at 3 mg/kg, at 10 mg/kg or at 30 mg/kg once daily (QD) in monotherapy, temolozomide [TMZ] administered orally at 3 mg/kg once daily (QD) in monotherapy, over a 28 day cycle, and combination of TMZ+compound of formula (I) at each dose) (n=6 animals per group for monotherapy groups and n=8 animals per group for combination groups). In combination arms, Compound of formula (I) and was administered 2 hours prior to TMZ. During routine monitoring, the animals were checked for any effects of tumor growth and treatments on behavior such as mobility, food and water consumption, body weight gain/loss 3 times a week, eye/hair matting and any other abnormalities. Mortality and observed clinical signs were recorded for individual animals in detail.

[3] = system: SF188 cells; test: Colony formation assay in SF188 cells; assay type: cell-based; conditions: up to 400 nM, 10 days post-treatment
Procedure: SF188 cells were transfected with ATRX siRNA (siATRX_1 or siATRX_2) either individually (A) or as a pool (B and C) or control siRNA (siCon) and ATRX deficiency assessed by determining relative ATRX protein levels by western blotting. Control and ATRX-deficient SF188 cells were then treated with compound of formula (I) at a range of concentrations between 0 and 1.5 uM (FIG. 7A) and at 400 nM (FIG. 7B) and drug sensitivities were assessed via an ATP-based cell viability assay or in colony formation assay.
For cell viability assessment, SF188 cells were seeded in 96-well culture plates at 100-500 cells in 100 μl of culture media per well. After overnight incubation, 100 μl of culture media containing compound of formula (I) was added to each well at the desired final concentration. After 72 h, cell viability was assessed by CellTiter-Glo 2.0 according to the manufacturer's instructions. Each condition was tested in triplicate or quadruplicate, and the average viability is presented as a percentage of vehicle-treated cells. For colony formation assessment (FIG. 7C), SF188 cells were seeded on a 6-well plate at 100 cells per well in 1 ml of culture media. […] The number of colonies in each well was counted manually. […] Colony-forming efficiency was determined by normalizing the colony numbers to the vehicle-treated cells.

Structure (SMILES): Cc1cc(Nc2ncc3c(n2)N(C)CN(c2c(Cl)cccc2Cl)C3=O)ccc1C1CCN(C)CC1 [Compound of formula (I)]
- Brain:plasma concentration ratio, at 24 h post last dose ([1]; individual animals): 4.18 and 4.57
- Plasma concentration at 24 h post last dose ([1]; individual animals): 929 ng/mL and 632 ng/mL
- Brain concentration at 24 h post last dose ([1]; left forebrain, individual animals): 3885 ng/g tissue and 2886 ng/g tissue
- Kp at 24 h ([1]; individual animals, read-out: Brain:plasma concentration ratio, at 24 h post last dose): 4.2
- Kp at 24 h ([1]; read-out: Mean brain:plasma ratio (±SD), at 24 h post last dose (n = 3)): 4.32 ± 0.22
- concentration at 24 h ([1]; brain (left forebrain), left forebrain, individual animals, read-out: Brain concentration at 24 h post last dose): 4790 ng/g
- concentration at 24 h ([1]; plasma, individual animals, read-out: Plasma concentration at 24 h post last dose): 1140 ng/mL
- Anti-tumor activity (mean relative BLI) vs vehicle ([2]; monotherapy 3 mg/kg oral QD): did not result in any significant anti-tumor activity
- Anti-tumor activity (mean relative BLI) vs vehicle ([2]; monotherapy 10 mg/kg oral QD): did not result in any significant anti-tumor activity
- Anti-tumor activity (mean relative BLI) vs vehicle ([2]; monotherapy 30 mg/kg oral QD, p=0.0133 on day 36): significantly smaller tumors than vehicle controls
- Surviving fraction of cells, colony formation assay [3]: significantly reduced the surviving fraction of cells

Source: US20260256790A1, “DEBIO-0123 IN COMBINATION WITH TEMOZOLOMIDE AND RADIOTHERAPY FOR USE IN TREATING GLIOMA” (Debiopharm International S.A., priority 2023, published 2026)
